Experimental data as given in patent US5145844A, “Methods of using hydroxy-, alkoxy- and benzyloxy-substituted phospholipids to treat phospholipase A2 -mediated conditions and to alleviate pain” (Hoechst-Roussel Pharmaceuticals Incorporated, priority 1991, dated 1992).
Counter-ions that a name gives are not always drawn.

Test system: phenyl-para-quinone induced writhing
Test: phenyl-para-quinone writhing assay in mice (Analgesic PQW)
Format: in vivo
Conditions: 20 mg/kg, s.c.
Source text: The compounds of the present invention are also useful as analgesic agents due to their ability to alleviate pain in mammals. […] Exptl. Biol. Med., 95, 729 (1957)]. Presented in Table 2 is the analgesic effect of some of the compounds of the invention expressed as either the subcutaneous dose at which 50% of the phenyl-para-quinone induced writhing is inhibited in the animals, i.e., the ED50 value, or at the % decrease in writhing at a give dose.

Row | SMILES | Analgesic PQW % Inhibition of Writhing [%]
1 | CCCCCCCCCCCCCCCC(CCCOP(=O)([O-])OCC[N+](C)(C)C)OCc1ccccc1 (stereo not shown) [4-Hydroxy-N,N,N-trimethyl-9-phenylmethoxy.3,5-dioxa-4-phosphatetracosan-1-aminium, 4-oxide, hydroxide, inner salt monohydrate] | 36
2 | C[N+](C)(C)CCOP(=O)([O-])OCCCC(O)CCCCCCCCCOc1ccccc1 (stereo not shown) [4,9-Dihydroxy-N,N,N-trimethyl-3,5-dioxa-18-phenoxy-4-phosphaoctadecan-1-aminium, 4-oxide, hydroxide, inner salt dihydrate] | 48
3 | CCCCCCCCCCCCCCCC(O)CCCOP(=O)([O-])OCC[N+]1(C)CCCC1 (stereo not shown) [4,9-Dihydroxy-N-methyl-3,5-dioxa-4-phosphatetetracosan-1-pyrrolidinium, 4-oxide, hydroxide, inner salt 3.5 hydrate] | 62
4 | CCCCCCCCCC(CCCOP(=O)([O-])OCC[N+](C)(C)C)OCc1ccccc1 (stereo not shown) [4-Hydroxy-N,N,N-trimethyl-9-phenylmethoxy-3,5-dioxa-4-phosphaoctadecan-1-aminium, 4-oxide, hydroxide, inner salt monohydrate] | 83
